The results in this text go back to ChEMBL document CHEMBL2046443, “Desmethyl Macrolides: Synthesis and Evaluation of 4,10-Didesmethyl Telithromycin” (2012).

In brackets after ≈: the same amount, converted by molar mass.

What all share (format): functional
Assay [1] concerns Escherichia coli. The assay can be described thus: Antibacterial activity against wild type Escherichia coli DK/pKK3535.
Assay [2] concerns Staphylococcus aureus. The assay can be described thus: Antibacterial activity against Staphylococcus aureus UCN14 harboring 23S rRNA A2058T mutant.
Assay [3] deals with Escherichia coli. As to the kind of experiment: Antibacterial activity against Escherichia coli SQ171 harboring 23S rRNA A2058G mutant.
The subject of assay [4] is Escherichia coli. As to the kind of experiment: Antibacterial activity against Escherichia coli DK harboring 23S rRNA A2058G mutant.
For assay [5], the system named is Staphylococcus aureus. As to the kind of experiment: Antibacterial activity against Staphylococcus aureus ATCC 33591 harboring ermA gene.

What is called MIC is the lowest concentration that inhibits growth of the organism. A lower MIC goes with inhibition by little substance.

As to `CC[C@H]1OC(=O)[C@H](C)C(=O)C[C@@H](O[C@@H]2O[C@H](C)C[C@H](N(C)C)[C@H]2O)[C@@](C)(OC)CCC(=O)C[C@@H]2N(CCCCn3cnc(-c4cccnc4)c3)C(=O)O[C@@]21C`, the MIC in the assay on Escherichia coli [1] is 32 µg/mL (≈ 41.6 µM).
Turning to `CC[C@H]1OC(=O)[C@H](C)C(=O)C[C@@H](O[C@@H]2O[C@H](C)C[C@H](N(C)C)[C@H]2O)[C@](C)(OC)C[C@@H](C)C(=O)C[C@H]2N(CCCCn3cnc(-c4cccnc4)c3)C(=O)O[C@]12C`, the MIC in the assay on Staphylococcus aureus [2] is > 256 µg/mL; with Escherichia coli [3], > 512 µg/mL; with Escherichia coli [4], 16 µg/mL (≈ 20.4 µM); in the assay on Escherichia coli [1], 8 µg/mL (≈ 10.2 µM); against Staphylococcus aureus [5] it was > 128 µg/mL.
For the molecule `CC[C@H]1OC(=O)[C@H](C)C(=O)[C@H](C)[C@@H](O[C@@H]2O[C@H](C)C[C@H](N(C)C)[C@H]2O)[C@](C)(OC)C[C@@H](C)C(=O)[C@H](C)[C@H]2N(CCCCn3cnc(-c4cccnc4)c3)C(=O)O[C@]12C` [TELITHROMYCIN], the MIC in the assay with Staphylococcus aureus [2] is > 128 µg/mL; with Escherichia coli [3], > 512 µg/mL; in the assay on Escherichia coli [4], 1 µg/mL (≈ 1.23 µM); against Escherichia coli [1] it was 0.5 µg/mL (≈ 0.616 µM); against Staphylococcus aureus [5], > 128 µg/mL.
